Reference: PMC4186475 (Influenza and Other Respiratory Viruses, 2013)

Assays:
[1] = test system: neuraminidase (NA) of influenza B viruses; assay type: biochemical, influenza B virus
[2] = test system: neuraminidase (NA) of influenza A (H3N2) viruses; assay type: biochemical, influenza A (H3N2) virus

SMILES | Fold change in IC50 of test viruses, Approach #3 [1] | fold change in IC50 of outliers [1] | Fold change in IC50 of test viruses, Approach #1 [2] | Fold change in IC50 of test viruses, Approach #2 [2] | Fold change in IC50 of test viruses, Approach #3 [2] | fold change in IC50 of outliers [2]
CCOC(=O)C1=C[C@@H](OC(CC)CC)[C@H](NC(C)=O)[C@@H](N)C1 [Oseltamivir, Oseltamivir (carboxylate)] | 6 (1) fold | 53·02 (6) fold |  |  |  | 
CC(=O)N[C@H]1[C@H]([C@H](O)[C@H](O)CO)OC(C(=O)O)=C[C@@H]1N=C(N)N [Zanamivir, zanamivir] | 5 (1) fold | 5·11 (5) fold | 132 (1) fold | 132 (1) fold | 91 (1) fold | 23·75 (91) fold
